Assay results: patent US5246935A, “Piperazinyl derivatives and methods of treating central nervous system ailments relating to the 5-HT2 receptor system” (Novo Nordisk A/S, priority 1990, dated 1993)
Where a name gives a salt, the structure may show the parent alone.

Tests used:
5HT2 receptor = target: T1, 5HT2 receptor (Rattus norvegicus, UniProt P14842); test: In Vitro Inhibition of 5HT2-Receptor Binding (3H-Ketanserine); design: species or system rat (male Wistar); conditions: 3H-Ketanserine 0.4 nM, rat frontal cortex, 37° C., 15 min
T1 construct: incubated with isolated cell-membrane fragments; from tissue; host or cells: frontal cortex of male Wistar rats (membranes)
T1 sequence (P14842 whole entry, the tested form may be a part): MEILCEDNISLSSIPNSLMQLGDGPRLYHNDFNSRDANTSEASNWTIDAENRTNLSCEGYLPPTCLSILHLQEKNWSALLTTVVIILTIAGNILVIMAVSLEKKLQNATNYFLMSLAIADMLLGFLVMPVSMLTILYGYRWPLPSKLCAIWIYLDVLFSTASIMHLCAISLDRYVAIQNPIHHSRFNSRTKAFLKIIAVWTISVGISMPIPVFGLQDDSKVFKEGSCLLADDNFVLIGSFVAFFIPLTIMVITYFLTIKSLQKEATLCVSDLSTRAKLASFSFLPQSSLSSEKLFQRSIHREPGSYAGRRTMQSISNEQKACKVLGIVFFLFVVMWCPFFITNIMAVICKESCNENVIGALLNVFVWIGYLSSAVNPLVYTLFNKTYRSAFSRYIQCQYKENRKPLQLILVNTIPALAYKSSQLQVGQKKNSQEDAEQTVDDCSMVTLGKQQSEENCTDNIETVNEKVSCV
Procedure: In Vitro Inhibition of 5HT2 -Receptor Binding
(§1) Radioactive-labelled ligand ^3 H-Ketanserine is incubated with isolated cell-membrane fragments at 37° C. for a given period of time. Following completed incubation, the incubate is filtered through GF/B filters which are rinsed after filtration to remove unspecifically adhered radioactivity. As opposed to low-molecular compounds, membrane fragments are not rinsed through the filters, the radioactivity bound to the filters indicates the amount of ligand bound specifically as well as non-specifically to the membranes.
The preparation is made in ice bath. Polytron kinematica is rinsed with milli-Q-H2 O before and after use. Male Wistar rats, 150-200 g are decapitated. Frontal cortex is removed quickly and weighed (approx. 200 mg). Frontal cortex is added to centrifuging vial containing 10 ml ice-cold D2 buffer. Homogenization applying polytron kinematica (homogenizer) setting 6 for 20 sec. The homogenizer is rinsed with 10 ml D2 buffer in another centrifuging vial. The 10 ml rinsing buffer is added to the tissue vial. Centrifuged at 18,000 rpm for 10 min. at 4° C. Final pellet is transferred to 125×vol. of same buffer. (Ex. 200 mg in 25 ml D2 buffer). Can be stored for approx. 30 min. at 0° C.
25 μl ^3 H-Ketanserine (0.4 nM)
25 μl test substance/H2 O/blind cyproheptadine (2 μM)
Incubation for 15 min. at 37° C.
10 ml ice-cold 0.9% NaCl is added to the tubes. Filtration is performed through GF/B filters (use gloves). This procedure is repeated. Filters are placed in counting vials, and 4 ml opti- flour is added (prepare in fume cupboard, use gloves). Counting at window 0-19 of the beta-counter (Pachard). Note that receptor box and lid are rinsed thoroughly in H2 O after use to avoid contamination. Further the analytical site is cleaned carefully every day.
(§2) Dissolved in H2 O, EtOH, MeOH or DMSO and further diluted in H2 O. The 5HT2 binding will stand concentrations of up to approx. 5% of these solvents without affecting the binding. Most stock solutions are stable at 4° C. Attention should, however, be paid to any precipitation, change in colour etc. Test-substance dilutions are always made fresh every day. When weighing out test substance, it is attempted to weigh out approx. 1 mg of substance. Less than 0.8 mg must never be weighed out and only infrequently more than 2 mg (for economy reasons) dependent, however, on conc./assay.

Alpha1 receptor = test: In-Vitro Inhibition of Alpha1-Receptor Binding (3H-Prazosin); design: species or system rat (male Wistar); conditions: 3H-Prazosin 0.5 nM, rat cortex, 25° C., 30 min; read-out: Receptor binding IC50 α1
Procedure: In-Vitro Inhibition of Alpha1 -Receptor Binding, Radioactive-labelled ligand ^3 H-Prazosin is incubated with isolated cell-membrane fragments at 25° C. for a given period of time. Following completed incubation, the incubate is filtered through GF/B filters, which are rinsed following filtration to remove unspecifically adhered radioactivity. As opposed to low- molecular compounds, membrane fragments are not rinsed through the filters, the radioactivity bound to the filters indicates the amount of ligand bound specifically as well as nonspecifically to the membranes. The procedure is performed in ice bath. Polytron kinematica is rinsed with milli-Q-H2 O before and after use. Male Wistar rats, 150-200 g are decapitated, cortex is removed quickly and weighed (approx. 500 mg). Cortex is transferred to a centrifuging vial containing 10 ml ice-cold D2 buffer. Homogenization applying polytron kinematica (homogenizer) setting 6 for 20 sec. The homogenizer is rinsed with 10 ml D2 buffer in another centrifuging vial. The 10 ml rinsing buffer is added to the tissue vial. Centrifugation at 18,000 rpm for 12 min. at 4° C. This is repeated once. Final pellet is added to 400×vol. of same buffer. (Ex. 500 mg cortex in 200 ml D2 buffer). Can be stored for 30 min. at 0° C. 2,000 μl tissue 25 μl ^3 H-Prazosin (0.5 nM) 25 μl test substance/H2 O/blind Phentolamine (10 μM) Incubation for 30 min. at 25° C. 10 ml of ice-cold 0.9% NaCl is added to the tubes and filtered through GF/B filters (use gloves). This procedure is repeated. Filters are placed in counting vials and 4 ml opti-flour is added (perform in fume cupboard, use gloves). Counting is performed at window 0-19 of the betacounter (Pachard). […] Further, the analytical site is cleaned carefully every day after use. Dissolved in H2 O, EtOH, MeOH or DMSO and further diluted in H2 O. […] Most stock solutions are stable at 4° C. Attention should, however, be paid to any precipitation, change in colour etc. Test-substance dilutions are always prepared fresh every day. When weighing out test substances, it is attempted to weigh out approx. 1 mg of substance. Less than 0.8 mg must never be weighed out and only infrequently more than 2 mg (for economy reasons) dependent, however, on conc./ass.

5HT1A receptor = target: T2, 5HT1A receptor (Rattus norvegicus, UniProt P19327); test: In-Vitro inhibition of 5HT1A receptor binding (3H-8-OH-DPAT); design: species or system rat (male Wistar); conditions: 3H-8-OH-DPAT 1 nM, rat frontal cortex and hippocampus, 37° C., 10 min
T2 sequence (P19327 1-422): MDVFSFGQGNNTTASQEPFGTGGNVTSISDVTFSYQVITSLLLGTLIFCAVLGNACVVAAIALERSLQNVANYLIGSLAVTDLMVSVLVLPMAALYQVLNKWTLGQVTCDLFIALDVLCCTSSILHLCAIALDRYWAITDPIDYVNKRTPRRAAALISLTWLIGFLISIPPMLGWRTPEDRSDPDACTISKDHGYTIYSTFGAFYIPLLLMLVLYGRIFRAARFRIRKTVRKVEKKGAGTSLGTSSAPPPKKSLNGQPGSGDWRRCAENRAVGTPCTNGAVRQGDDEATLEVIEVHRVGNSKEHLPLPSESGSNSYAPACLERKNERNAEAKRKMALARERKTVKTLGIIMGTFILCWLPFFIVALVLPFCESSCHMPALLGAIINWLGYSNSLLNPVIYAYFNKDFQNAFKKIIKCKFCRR
Procedure: In-Vitro inhibition of 5HT1A receptor binding
as §1, with “H-80H-DPAT” for “H-Ketanserine”, “GF/F” for “GF/B”, “nonspecifically” for “non-specifically”
Male Wistar rats, 150-200 g are decapitated, and frontal cortex (approx. 200 mg) and hippocampus (approx. 70 mg) homogenized in 2×10 ml ice-cold DPAT buffer for 20 sec. applying polytron kinematica setting 6. Centrifuged at 20,000 rpm for 10 min. at 4° C. The pellet is transferred to 2×10 ml ice-cold DPAT buffer, homogenized for 20 sec. and preincubated for 10 min. at 37° C. Centrifuged at 20,000 rpm for 10 min. at 4° C. Final pellet added to 125×vol. of same buffer with 10 μM paragylin added (ex. 270 mg tissue in 33.75 ml DPAT buffer containing paragylin). Prepared fresh every day. Use within 30 minutes.
1,250 μl tissue 25 μl ^3 H-80H-DPAT (1 nM) 25 μl test substance/H2 O/blind serotonin (10 μM)
Incubation at 37° C. for 10 min.--at 10 sec. intervals. To the tubes is added 10 ml ice-cold 0.9% NaCl. Filtration through GF/F filters (use gloves). This procedure is repeated. Filters are placed in counting vials and 4 ml optiflow added (prepare in fume cupboard, use gloves). Counted at window 0-19 of the beta- counter (Pachard). Note that receptor box and lid are rinsed thoroughly in H2 O after use to avoid contamination. Further the analytical site is cleaned carefully every day.
as §2, with “The DPAT” for “The 5HT2”, “always prepared” for “always made”, “test substances,” for “test substance,”, “dependent, however” for “dependent, however,”

5-HT2 receptor = conditions: cited from earlier work
psychosis = conditions: in vivo; cited from earlier work
dopamine D2 receptors = conditions: cited from earlier work
[1] = system: acetic acid-induced writhings in mice; test: Antagonism of Acetic Acid-Induced Writhings In Mice; format: in vivo, mouse (NMRI); conditions: Mus musculus, sc; s.c. 30 min before acetic acid 0.5 per cent i.p.; 50 per cent protection
Procedure: Antagonism of Acetic Acid-Induced Writhings In Mice
In mice i.p. injection of acetic acid induces a writhing syndrome which is antagonized by analgesics (Siegmund et al., 1957; Eckhardt et al., 1957).
Acetic acid 0.5 per cent is injected i.p. (0.15 ml/10 g body weight) to 6 mice (NMRI, either sex weighing 20-25 g) pretreated with physiological saline (controls) and to 6 mice pretreated with test substance. In the controls acetic acid induces a syndrome characterized by contraction of abdomen, turning of trunk and extension of hind limbs. Saline and test substances are administered s.c. 30 min. before acetic acid. The number of writhings is counted 5-15 min. after injection of acetic acid.
The activity is expressed as per cent protection: [formula]
The effect of active substances is evaluated by a dose response curve, log dose on the abscissa, and per cent protection on the ordinate. The potency is expressed as the dose (ED50 in mg/kg giving 50 per cent protection against writhings.
This test is used as a screening test for analgesics. Additional results from other screening tests are required to exclude active anti-writhing substances without analgesic effect.

[2] = system: 5HT2, alpha1-adrenergic and dopaminergic receptors; conditions: cited from earlier work
anxiety, depression = conditions: clinical; cited from earlier work
5-HT1A receptors = conditions: cited from earlier work
[3] = system: ischemic neuronal damage in the gerbil; conditions: cited from earlier work

`COc1cc(NC(=S)OCCCN2CCN(c3ccccc3Cl)CC2)cc(OC)c1OC` [Example 24, 4-(2-Chlorophenyl)-1-(3-[3,4,5-trimethoxyphenyl(thiocarbamoyl)oxy]propyl)piperazine, hydrochloride] showed an IC50 (5HT2 receptor) of 49 nM, an IC50 (Alpha1 receptor) of 7.5 nM and an IC50 (5HT1A receptor) of 61 nM.

In the case of `O=C(c1ccc(F)cc1)C1CCN(CCn2c(=O)[nH]c3ccccc3c2=O)CC1` [ketanserin], the “affinity for / antagonism of 5-HT2 receptor (in words)” value (5-HT2 receptor) is given as “high affinity”.

For `Cc1nc2n(c(=O)c1CCN1CCC(c3noc4cc(F)ccc34)CC1)CCCC2` [Risperidone], the “antipsychotic properties (in words)” value (psychosis) is given as “antipsychotic properties” and the “antagonism of dopamine D2 receptors (in words)” value (dopamine D2 receptors) is given as “potent antagonist”.

In the case of `Cl.O=C(Nc1ccc2c(c1)OCO2)OCCCN1CCN(c2cccc(Cl)c2)CC1` [Example 15, 4-(3-Chlorophenyl)-1-[3-(3,4-methylenedioxyphenylcarbamoyloxy)propyl]piperazine, hydrochloride], the ED50 [1] is reported as 5.6 mg/kg.

In the case of `CN1CCN(C2=Nc3cc(Cl)ccc3Nc3ccccc32)CC1` [clozapine], the “antipsychotic properties (in words)” value (psychosis) is given as “unprecedented antipsychotic potential” and the “binding to 5HT2, alpha1-adrenergic and dopaminergic receptors (in words)” value [2] is given as “nonselectively binds”.

For `Cc1nc2sccn2c(=O)c1CCN1CCC(=C(c2ccc(F)cc2)c2ccc(F)cc2)CC1` [Ritanserin], the “anxiolytic / antidepressant efficacy (in words)” value (anxiety, depression) is listed as “demonstrate clinical efficacy as anxiolytic-antidepressant agents”.

In the case of `CCCN(CCC)C1CCc2cccc(O)c2C1` (centres unmarked) [Example 8-OH-DPAT, 8-hydroxy-2-(di-n-propylamino)tetralin], the “binding affinity / selectivity for 5-HT1A receptors (in words)” value (5-HT1A receptors) is given as “high affinity” and the “protective effect on ischemic neuronal damage in the gerbil (in words)” value [3] is given as “exhibit a protective effect on ischemic neuronal damage”.

For `O=C1CC2(CCCC2)CC(=O)N1CCCCN1CCN(c2ncccn2)CC1` [buspirone], the “binding affinity / selectivity for 5-HT1A receptors (in words)” value (5-HT1A receptors) is listed as “selectivity for 5-HT1A receptors” and the “anxiolytic / antidepressant efficacy (in words)” value (anxiety, depression) is listed as “effective anxiolytic agent”.

In the case of `CCN(CC)CCOC(=O)C(Cc1cccc2ccccc12)CC1CCCO1` (centres unmarked) [naftidrofuryl], the “protective effect on ischemic neuronal damage in the gerbil (in words)” value [3] is given as “exhibit a protective effect on ischemic neuronal damage”.

In the case of `Cl.O=C(Nc1ccc2c(c1)OCCO2)OCCCN1CCN(c2cccc(Cl)c2)CC1` [Example 18, 4-(3-Chlorophenyl)-1-[3-(3,4-ethylenedioxyphenylcarbamoyloxy)propyl]piperazine, hydrochloride], the ED50 [1] is reported as 7 mg/kg.

Molecule `CCOC(=O)C1(c2ccccc2)CCN(C)CC1` [Pethidine, reference compound] has an ED50 [1] of 9.3 mg/kg.
